How the values were obtained:
human LPA1 = target: T1, human LPA1 (Homo sapiens, UniProt Q92633); experiment: Test of LPA1 antagonism ([35S]GTPγS binding, membrane fraction of RH 7777 cells expressing human LPA1); format: biochemical; conditions: LPA 100 nM, read-out: IC50, concentration required for 50% inhibition of the binding of LPA1 and [35S]GTPγS
T1 construct: purchased ChanTest A324; host or cells: RH 7777 cells (recombinant expression of human LPA1)
Description: 5 μg of a membrane fraction of RH 7777 cells expressing human LPA1 (A324, ChanTest) was suspended in a reaction buffer (20 mM HEPES, 100 mM NaCl, 10 mM MgCl2, 10 μM GDP, 5 μg saponin, 0.2% BSA, 0.1 nM [^35S]GTPγS (NEG030X, Perkin Elmer), pH 7.4). The test compounds dissolved in DMSO in various concentrations were each added to the suspension. After preincubation at 30° C. for 15 minutes, LPA (L7260, Sigma, final concentration 100 nM) was added, and the suspensions were incubated at 30° C. for 30 minutes. The membrane fractions were collected on a glass fiber filter (GF/B, Whatman) by using a cell harvester (M30, Brandel), and were washed with a 10 mM phosphate buffer (pH 7.4). The radioactivity of the membrane fractions was measured with a liquid scintillation analyzer (2900TR, Packard). The concentration (IC50) of the test compound required for 50% inhibition of the binding of LPA1 and [^35S]GTPγS was determined by non-linear regression analysis using EXSAS (Arm Systex).

STAM mice (NASH models) = experiment: Non-alcoholic steatohepatitis (NASH) mouse models (STAM mice); format: in vivo; conditions: for NAFLD Activity score, compound administered group: 30 mg/kg twice daily orally for 3 weeks, age of six to nine weeks; for reduction in NAFLD activity score (statistical significance): versus vehicle group
Description: STAM (registered trademark) mice (Stelic Institute & Co., Inc.) were used as NASH models. The STAM (registered trademark) mice were prepared by subcutaneously administering 200 μg of streptozotocin (Sigma Aldrich) one time to the back of 2-day old male mice and feeding the mice with a high fat diet (High Fat Diet 32, CLEA Japan, Inc.) from the age of 4 weeks (Medical Molecular Morphology, 46 (2013) pp. 141-152).
The test compound was orally administered every day from the age of 5 or 6 weeks. At the age of 9 or 10 weeks, bloods and livers were collected under anesthesia. The bloods were subjected to biochemical tests. After the wet weights of the livers were measured, RNA was extracted from portions of the livers, and the expression levels of the inflammation and fibrosis marker genes were measured by the quantitative PCR method. Further, the amounts of hydroxyproline or collagen in the livers were measured. Paraffin sections or frozen sections were prepared from portions of the livers and were subjected to histopathological tests to determine the NAFLD activity scores, the fibrosis areas or the inflammation areas. The results were statistically analyzed using EXSUS (CAC EXICARE CORPORATION) or Prism 4 (GraphPad Software, Inc.).

T1 sequence (Q92633 whole entry): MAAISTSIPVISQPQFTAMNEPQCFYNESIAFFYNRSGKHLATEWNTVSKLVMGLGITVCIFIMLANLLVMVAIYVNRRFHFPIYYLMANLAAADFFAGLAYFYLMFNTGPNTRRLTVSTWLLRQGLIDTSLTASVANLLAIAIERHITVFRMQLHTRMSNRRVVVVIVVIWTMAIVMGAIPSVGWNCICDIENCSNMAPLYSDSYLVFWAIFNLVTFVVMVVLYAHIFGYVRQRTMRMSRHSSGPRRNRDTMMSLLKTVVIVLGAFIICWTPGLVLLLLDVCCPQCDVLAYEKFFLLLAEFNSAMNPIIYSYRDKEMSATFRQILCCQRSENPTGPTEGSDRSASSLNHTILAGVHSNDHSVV

SMILES	IC50 (human LPA1)	NAFLD Activity score, compound administered group (STAM mice (NASH models))	reduction in NAFLD activity score (statistical significance) (STAM mice (NASH models))
COc1cc(-c2sc(Cl)cc2NC(=O)O[C@H](C)c2ccccc2)ccc1-c1ccc(C2(C(=O)O)CC2)cc1 [Production Example 6, (R)-1-[4′-(5-chloro-3-{[(1-phenylethoxy)carbonyl]amino}thiophen-2-yl)-2′-methoxy-[1,1′-biphenyl]-4-yl]cyclopropanecarboxylic acid]	≤ 100 nM	2.8 ± 1.0	significant (p<0.05) reduction
Cc1cscc1[C@@H](C)OC(=O)Nc1cc(F)sc1-c1ccc(-c2ccc(C3(C(=O)O)CC3)cc2)cc1 [Production Example 7, (R)-1-{4′-[5-fluoro-3-({[1-(4-methylthiophen-3-yl)ethoxy]carbonyl}amino)thiophen-2-yl]-[1,1′-biphenyl]-4-yl}cyclopropanecarboxylic acid]	≤ 100 nM		
COc1cc(-c2sc(F)cc2NC(=O)O[C@H](C)c2ccccc2Cl)ccc1-c1ccc(C2(C(=O)O)CC2)cc1 [Production Example 8, (R)-1-{4′-[3-({[1-(2-chloropheny)ethoxy]carbonyl}amino)-5-fluorothiophen-2-yl]-2′-methoxy-[1,1′-biphenyl]-4-yl}cyclopropanecarboxylic acid]	≤ 100 nM		
COc1cc(-c2sc(Cl)cc2NC(=O)O[C@H](C)c2cc(F)ccc2F)ccc1-c1ccc(C2(C(=O)O)CC2)cc1 [Production Example 9, (R)-1-{4′-[5-chloro-3-({[1-(2,5-difluorophenyl)ethoxy]carbonyl}amino)thiophen-2-yl]-2′-methoxy-[1,1′-biphenyl]-4-yl}cyclopropanecarboxylic acid]		3.1 ± 1.4	significant (p<0.05) reduction

Reference: patent US20180360803A1, “PHARMACEUTICAL COMPOSITION FOR TREATMENT OR PREVENTION OF NASH” (UBE INDUSTRIES, LTD., priority 2015, published 2018)
